11 compounds from patent US8785460B2, “Tricyclic compounds and use thereof” (Takeda Pharmaceutical Company Limited, priority 2008, dated 2014) can be followed below.

In general, IC50 refers to the concentration that inhibits the measured activity by half. For orientation: melting point means the temperature of the solid-liquid transition.

One data set addresses T1, human CRF1 receptor (Homo sapiens, UniProt P34998).
T1 construct: expressed in transfected cells; host or cells: CHO cells (membrane fraction)
T1 sequence (P34998 24-415): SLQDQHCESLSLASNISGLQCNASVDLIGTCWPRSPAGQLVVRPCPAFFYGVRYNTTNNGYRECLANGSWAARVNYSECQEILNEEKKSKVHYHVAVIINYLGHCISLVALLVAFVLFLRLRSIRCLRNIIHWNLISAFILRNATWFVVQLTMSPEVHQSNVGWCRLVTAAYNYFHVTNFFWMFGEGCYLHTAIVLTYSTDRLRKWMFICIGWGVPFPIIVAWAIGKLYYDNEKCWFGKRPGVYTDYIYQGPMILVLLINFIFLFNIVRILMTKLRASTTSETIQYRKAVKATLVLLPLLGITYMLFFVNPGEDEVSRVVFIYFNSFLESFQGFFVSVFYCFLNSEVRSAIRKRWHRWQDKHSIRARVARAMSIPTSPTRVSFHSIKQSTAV
In words: Measurement of CRF Binding Inhibitory Rate (receptor binding experiment with 125I-CRF). The following applies: human CRF1 receptor expressing CHO cellular membrane fraction, 50 pM 125I-CRF, room temperature 1.5 hr, 0.05 nM to 10 μM of compound; read-out: IC50 values (CRF binding inhibition).

With `CC(C)(CO)c1ccc(Cl)c2nc3n(c12)CCCN3c1ccc(Cl)cc1Cl` [Example 148, 2-[9-Chloro-1-(2,4-dichlorophenyl)-1,2,3,4-tetrahydropyrimido[1,2-a]benzimidazol-6-yl]-2-methylpropan-1-ol], the melting point was 176 to 177 °C. The IC50 on human CRF1 receptor is under 1000 nM.
For `CCC(COC)c1ccc(Cl)c2nc3n(c12)CCCN3c1ccc(Cl)cc1Cl` (stereo not shown) [Example 149, 9-Chloro-1-(2,4-dichlorophenyl)-6-[1-(methoxymethyl)propyl]-1,2,3,4-tetrahydropyrimido[1,2-a]benzimidazole], in that order: 130 to 131 °C and under 1000 nM.
The corresponding values for `COCC(C)(C)c1ccc(Cl)c2nc3n(c12)CCCN3c1ccc(Cl)cc1Cl` [Example 150, 9-Chloro-1-(2,4-dichlorophenyl)-6-(2-methoxy-1,1-dimethylethyl)-1,2,3,4-tetrahydropyrimido[1,2-a]benzimidazole] are 188 to 190 °C and under 1000 nM.
The corresponding values for `CCC(OC(C)=O)c1ccc(Cl)c2nc3n(c12)CCCN3c1cnc(N(C)C)cc1C` (stereo not shown) [Example 155, 1-{9-Chloro-1-[6-(dimethylamino)-4-methylpyridin-3-yl]-1,2,3,4-tetrahydropyrimido[1,2-a]benzimidazol-6-yl}propyl acetate] are 159 to 160 °C and under 1000 nM.
As for `CCOC(CC)c1ccc(Cl)c2nc3n(c12)CCCN3c1cnc(N(C)C)cc1C` (stereo not shown) [Example 156, 5-[9-Chloro-6-(1-ethoxypropyl)-3,4-dihydropyrimido[1,2-a]benzimidazol-1(2H)-yl]-N,N,4-trimethylpyridin-2-amine], the melting point lay in the range of 179 to 180 °C. In addition, the IC50 at human CRF1 receptor was under 1000 nM.
The corresponding values for `CCC(OC(C)=O)c1ccc(Cl)c2nc3n(c12)CCCN3c1ccc(N(C)C)nc1C` (stereo not shown) [Example 166, 1-{9-Chloro-1-[6-(dimethylamino)-2-methylpyridin-3-yl]-1,2,3,4-tetrahydropyrimido[1,2-a]benzimidazol-6-yl}propyl acetate] are 165 to 166 °C and under 1000 nM.
Compound `CCC(OCC(F)(F)F)c1ccc(Cl)c2nc3n(c12)CCCN3c1ccc(N(C)C)nc1C` (stereo not shown) [Example 167, 5-{9-Chloro-6-[1-(2,2,2-trifluoroethoxy)propyl]-3,4-dihydropyrimido[1,2-a]benzimidazol-1(2H)-yl}-N,N,6-trimethylpyridin-2-amine] registered a melting point of 144 to 146 °C. In addition, the IC50 on human CRF1 receptor was under 1000 nM.
The corresponding values for `CCC(OC(C)=O)c1ccc(Cl)c2nc3n(c12)CCCN3c1ncc(Cl)cc1Cl` (stereo not shown) [Example 171, 1-[9-Chloro-1-(3,5-dichloropyridin-2-yl)-1,2,3,4-tetrahydropyrimido[1,2-a]benzimidazol-6-yl]propyl acetate] are 157 to 159 °C and under 1000 nM.
The corresponding values for `CCC(OC(=O)C1CC1)c1ccc(Cl)c2nc3n(c12)CCCN3c1ncc(Cl)cc1Cl` (stereo not shown) [Example 172, 1-[9-Chloro-1-(3,5-dichloropyridin-2-yl)-1,2,3,4-tetrahydropyrimido[1,2-a]benzimidazol-6-yl]propyl cyclopropanecarboxylate] are 154 to 155 °C and under 1000 nM.
The compound `COc1nc(C)nc(OC)c1N1CCCn2c1nc1c(Cl)ccc(C(O)(C3CC3)C3CC3)c12` [Example 174, [9-Chloro-1-(4,6-dimethoxy-2-methylpyrimidin-5-yl)-1,2,3,4-tetrahydropyrimido[1,2-a]benzimidazol-6-yl](dicyclopropyl)methanol] showed a melting point of 204 to 205 °C. Moreover, the IC50 on human CRF1 receptor was under 1000 nM.
The corresponding values for `Cc1cnc(N2CCCn3c2nc2c(Cl)ccc(C(O)(C4CC4)C4CC4)c23)c(C)n1` [Example 176, [9-Chloro-1-(3,5-dimethylpyrazin-2-yl)-1,2,3,4-tetrahydropyrimido[1,2-a]benzimidazol-6-yl](dicyclopropyl)methanol] are 152 to 153 °C and under 1000 nM.
